In patent US6969711B2, “Cyclic diamine compounds and medicine containing the same” (Kowa Company, Ltd., priority 1997, dated 2005) one finds melting point data, which are given here for 30 compounds.

The term melting point denotes the temperature of the solid-liquid transition. In the case of `COC(=O)c1cccc2nc(SCCN3CCN(CCNC(=O)Nc4c(C(C)C)cccc4C(C)C)CC3)oc12` [Example 82, N-[2-[4-[2-(7-methoxycarbonylbenzoxazol-2-ylthio)ethyl]piperazin-1-yl]ethyl]-N′-(2,6-diisopropylphenyl)urea], the melting point lay in the range of 186 to 188 °C. Compound `CC(C)c1cccc(C(C)C)c1NC(=O)NCCN1CCN(CCSc2nc3ncccc3o2)CC1` [Example 83, N-[2-[4-[2-(oxazolo[4,5-b]pyridine-2-ylthio)ethyl]piperazin-1-yl]ethyl]-N′-(2,6-diisopropylphenyl)urea] returned a melting point of 175 to 176 °C.

In the case of `CC(C)c1cccc(C(C)C)c1NC(=O)CN1CCN(CCSc2nc3cccc(C(F)(F)F)c3o2)CC1` [Example 85, 2-[4-[2-(7-trifluoromethylbenzoxazol-2-ylthio)ethyl]piperazin-1-yl]-N-(2,6-diisopropylphenyl)acetamide], the melting point is 135 to 137 °C (dec.). Next, `COc1cc(C(C)C)c(NC(=O)CN2CCN(CCSc3nc4cccc(C(F)(F)F)c4o3)CC2)c(C(C)C)c1` [Example 86, 2-[4-[2-(7-trifluoromethylbenzoxazol-2-ylthio)ethyl]piperazin-1-yl]-N-(2,6-diisopropyl-4-methoxyphenyl)acetamide]: 122 to 123 °C; `CC(C)c1ccc([N+](=O)[O-])c(C(C)C)c1NC(=O)CN1CCN(CCSc2nc3cccc(C(F)(F)F)c3o2)CC1` [Example 87, 2-[4-[2-(7-trifluoromethylbenzoxazol-2-ylthio)ethyl]piperazin-1-yl]-N-(2,6-diisopropyl-3-nitrophenyl)acetamide]: 115 to 117 °C; `CCSc1cc(C)nc(SCC)c1NC(=O)CN1CCN(CCSc2nc3cccc(C(F)(F)F)c3o2)CC1` [Example 89, 2-[4-[2-(7-trifluoromethylbenzoxazol-2-ylthio)ethyl]piperazin-1-yl]-N-[2,4-bis(ethylthio)-6-methyl-3-pyridyl]acetamide]: 107 to 108 °C.

`CC(C)c1cccc(C(C)C)c1NC(=O)CN1CCCN(CCCSc2nc3cccc(C(F)(F)F)c3o2)CC1` [Example 91, 2-[4-[3-(7-trifluoromethylbenzoxazol-2-ylthio)propyl]homopiperazin-1-yl]-N-(2,6-diisopropylphenyl)acetamide] gave a melting point of 77 to 79 °C. Next, `COc1cc(C(C)C)c(NC(=O)CN2CCN(CCSc3nc4cccc(C(C)=O)c4o3)CC2)c(C(C)C)c1` [Example 93, 2-[4-[2-(7-acetylbenzoxazol-2-ylthio)ethyl]piperazin-1-yl]-N-(2,6-diisopropyl-4-methoxyphenyl)acetamide]: 185 to 186 °C. The same measure for `CC(=O)c1cccc2nc(SCCCN3CCCN(CC(=O)Nc4c(C(C)C)cccc4C(C)C)CC3)oc12` [Example 94, 2-[4-[3-(7-acetylbenzoxazol-2-ylthio)propyl]homopiperazin-1-yl]-N-(2,6-diisopropylphenyl)acetamide]: 86 to 88 °C. The same measure for `CC(C)c1cccc(C(C)C)c1NC(=O)CN1CCN(CCSc2nc3cccc(C(C)(C)C)c3o2)CC1` [Example 95, 2-[4-[2-(7-tert-butylbenzoxazol-2-ylthio)ethyl]piperazin-1-yl]-N-(2,6-diisopropylphenyl)acetamide]: 138 to 140 °C; for `Cc1c(Cl)cc(C(C)C)c2oc(SCCN3CCN(CC(=O)Nc4c(C(C)C)cccc4C(C)C)CC3)nc12` [Example 97, 2-[4-[2-(5-chloro-7-isopropyl-4-methylbenzoxazol-2-ylthio)ethyl]piperazin-1-yl]-N-(2,6-diisopropylphenyl)acetamide]: 162 to 163 °C; for `COc1cc2oc(SCCN3CCN(CC(=O)Nc4c(C(C)C)cccc4C(C)C)CC3)nc2c(OC)c1OC` [Example 98, 2-[4-[2-(4,5,6-trimethoxybenzoxazol-2-ylthio)ethyl]piperazin-1-yl]-N-(2,6-diisopropylphenyl)acetamide]: 126 to 129 °C (dec.). `COC(=O)c1ccc2nc(SCCN3CCN(CC(=O)Nc4c(C(C)C)cccc4C(C)C)CC3)oc2c1C(=O)OC` [Example 99, 2-[4-[2-(6,7-bis(methoxycarbonyl)benzoxazol-2-ylthio]ethyl]piperazin-1-yl]-N-(2,6-diisopropylphenyl)acetamide] registered a melting point of 186 to 187 °C. Next, `COCc1ccc2nc(SCCN3CCN(CC(=O)Nc4c(C(C)C)cccc4C(C)C)CC3)oc2c1COC` [Example 100, 2-[4-[2-(6,7-bis(methoxymethyl)benzoxazol-2-ylthio]ethyl]piperazin-1-yl]-N-(2,6-diisopropylphenyl)acetamide]: 96 to 97 °C. The same measure for `CCSc1cc(C)nc(SCC)c1NC(=O)CN1CCN(CCSc2nc3ccc(COC)c(COC)c3o2)CC1` [Example 101, 2-[4-[2-(6,7-bis(methoxymethyl)benzoxazol-2-ylthio)ethyl]piperazin-1-yl]-N-(2,4-bis(ethylthio)-6-methyl-3-pyridyl)acetamide]: 118 to 120 °C; for `CC(C)c1cccc(C(C)C)c1NC(=O)CN1CCN(CCSc2nc3cccc(CO)c3o2)CC1` [Example 102, 2-[4-[2-(7-hydroxymethylbenzoxazol-2-ylthio]ethyl]piperazin-1-yl]-N-(2,6-diisopropylphenyl)acetamide]: 138 to 139 °C. The same measure for `CC(C)c1cccc(C(C)C)c1NC(=O)CN1CCN(CCSc2nc3cccc(-c4cc[nH]n4)c3o2)CC1` [Example 103, 2-[4-[2-[7-(pyrazol-3-yl)benzoxazol-2-ylthio]ethyl]piperazin-1-yl]-N-(2,6-diisopropylphenyl)acetamide]: 181 to 183 °C. The compound `CC(C)c1cccc(C(C)C)c1NC(=O)CN1CCN(CCSc2nc3cccc([N+](=O)[O-])c3o2)CC1` [Example 104, 2-[4-[2-(7-nitrobenzoxazol-2-ylthio)ethyl]-piperazin-1-yl]-N-(2,6-diisopropylphenyl)acetamide] yielded a melting point of 153 to 155 °C.

For `COc1cc(C(C)C)c(NC(=O)CN2CCN(CCSc3nc4cccc([N+](=O)[O-])c4o3)CC2)c(C(C)C)c1` [Example 105, 2-[4-[2-(7-nitrobenzoxazol-2-ylthio)ethyl]-piperazin-1-yl]-N-(2,6-diisopropyl-4-methoxyphenyl)acetamide], the melting point is 165 to 166 °C. `Cc1cc(SC(C)C)c(NC(=O)CN2CCN(CCSc3nc4cccc([N+](=O)[O-])c4o3)CC2)c(SC(C)C)n1` [Example 107, 2-[4-[2-(7-nitrobenzoxazol-2-ylthio)ethyl]-piperazin-1-yl]-N-[2,4-bis(isopropylthio)-6-methyl-3-pyridyl]acetamide] came in with a melting point of 57 to 59 °C. Next, `CCSC1=C(NC(=O)CN2CCN(CCSc3nc4c(C)c(Cl)cc(C(C)C)c4o3)CC2)C=CC(C)(SCC)N1` (stereo not drawn) [Example 109, 2-[4-[2-(5-chloro-7-isopropyl-4-methylbenzoxazol-2-ylthio)ethyl]piperazin-1-yl]-N-[2,6-bis(ethylthio)-6-methyl-3-pyridyl]acetamide]: 120 to 122 °C; `COc1ccc(C(C)C)c(NC(=O)CN2CCN(CCCSc3nc4c(C)c(Cl)cc(C(C)C)c4o3)CC2)c1C(C)C` [Example 110, 2-[4-[3-(5-chloro-7-isopropyl-4-methylbenzoxazol-2-ylthio)propyl]piperazin-1-yl]-N-(2,6-diisopropyl-3-methoxyphenyl)acetamide]: 126 to 127 °C; `CSc1cccc2nc(SCCN3CCN(CC(=O)Nc4c(C(C)C)cccc4C(C)C)CC3)oc12` [Example 112, 2-[4-[2-(7-methylthiobenzoxazol-2-ylthio)ethyl]piperazin-1-yl]-N-(2,6-diisopropylphenyl)acetamide]: 120 to 121 °C. The same measure for `CCCCCCCN(CCN1CCN(CCSc2nc3c(C)c(Cl)cc(C(C)C)c3o2)CC1)C(=O)Nc1c(C(C)C)cc(O)cc1C(C)C` [Example 116, N-[2-[4-[2-(5-chloro-7-isopropyl-4-methylbenzoxazol-2-ylthio)ethyl]piperazin-1-yl]ethyl]-N′-(2,6-diisopropyl-4-hydroxyphenyl)-N-heptylurea]: 138 to 140 °C; for `CC(C)c1cc(O)cc(C(C)C)c1NC(=O)CN1CCN(CCCSc2nc3ccccc3o2)CC1` [Example 118, 2-[4-[3-(benzoxazol-2-ylthio)propyl]piperazin-1-yl]-N-(2,6-diisopropyl-4-hydroxyphenyl)acetamide]: 201 to 203 °C.

Compound `COc1cc(C(C)C)c(NC(=O)CN2CCN(CCCSc3nc4ccccc4o3)CC2)c(C(C)C)c1` [Example 119, 2-[4-[3-(benzoxazol-2-ylthio)propyl]piperazin-1-yl]-N-(2,6-diisopropyl-4-methoxyphenyl)acetamide] registered a melting point of 129 to 130 °C.

The compound `CCOCCOc1cc(C(C)C)c(NC(=O)CN2CCN(CCCSc3nc4ccccc4o3)CC2)c(C(C)C)c1` [Example 120, 2-[4-[3-(benzoxazol-2-ylthio)propyl]piperazin-1-yl]-N-[2,6-diisopropyl-4-(2-ethoxyethyloxy)phenyl]acetamide] came in with a melting point of 115 to 117 °C. Next, `CC(C)c1cccc(C(C)C)c1NC(=O)CN1CCN(CCSc2nc3cccc([S+](C)[O-])c3o2)CC1` (stereo not drawn) [Example 121, 2-[4-[2-(7-methanesulfinylbenzoxazol-2-ylthio)ethyl]piperazin-1-yl]-N-(2,6-diisopropylphenyl)acetamide]: 119 to 120 °C.

With `Cc1ccc(C(C)C)c2oc(SCCN3CCN(CC(=O)Nc4c(C(C)C)cccc4C(C)C)CC3)nc12` [Example 122, 2-[4-[2-(7-isopropyl-4-methylbenzoxazol-2-ylthio)ethyl]piperazin-1-yl]-N-(2,6-diisopropylphenyl)acetamide], the melting point was in the range of 133 to 134 °C.

Take `CC(C)c1ccc(O)c(C(C)C)c1NC(=O)CN1CCN(CCSc2nc3cccc(C(F)(F)F)c3o2)CC1` [Example 130, 2-[4-[2-(7-trifluoromethylbenzoxazol-2-ylthio)ethyl]piperazin-1-yl]-N-(2,6-diisopropyl-3-hydroxyphenyl)acetamide]: the melting point lay in the range of 82 to 84 °C.
